Reference: patent publication US20250002463A1, “NEW SALT FORMS OF AMILORIDE AND ITS DERIVATIVES FOR PHARMACEUTICAL USE” (PSOMRI Holding AB, priority 2021, published 2025)
Several values for one entry are separate records, joined by “and”; a condition that tells them apart may be missing. Equal entries are not always repeated.

Assays:
[1] = Physio-chemical stability study, open container 25° C./60% RH and 40° C./75% RH (UPLC, TGMS, HT-XRPD); format: physicochemical; settings: for UPLC 1 week / UPLC 3 weeks / UPLC 3 days: chemical purity
Experimental: Open container at 25° C. and 60% RH • 2. Open container at 40° C. and 75% RH

[2] = Hygroscopicity by Dynamic Vapor Sorption (DVS); format: physicochemical; settings: based on water vapour uptake at 25° C./80% RH
Experimental: The hygroscopic behaviour of the salts was evaluated through Dynamic Vapor Sorption (DVS) measurements with an RH profile 40-95-0-40% at 25° C. and a dm/dt of 0.002. The classification of the hygroscopic behaviour is based on the water vapour uptake at 25° C./80% RH in first adsorption cycle of sorption isotherm.

[3] = Intrinsic dissolution rate (rotating disc, μDiss) in water and FaSSIF; format: physicochemical; settings: for IDR (mg/cm^2/min) Individual: single disc
Experimental: Rotating disc intrinsic dissolution determinations were performed with a μDiss apparatus (Pion, USA) equipped with 6 independent glass fiber probes each connected to a diode area. Before the start of the experiment the probes were calibrated using the spectrum of a Mercury 362 nm pen-ray lamp. Discs were prepared in a passivated aluminum dye with a mini-IDR press (Heath Scientific, UK).
Six dilutions of benzamil lactate salt were prepared in the dissolution media in the range from 0 to 0.5 mg/mL, and the solutions were stirred with a cross-shaped magnetic stirrer. These dilutions were used for the calibration curve which is used for the calculation of the amount of benzamil in solution. Moreover, the solutions were used to select the wavelength at which the samples were to be measured and to select the proper path length.
The dyes were placed in their Teflon holder magnet stirrer and placed into 20 mL glass vials. Before to the sample measurement, a blank of each media was taken in the respective channel. The experiment started by the gentle addition of the pre-warmed dissolution media. Vials were incubated at 37° C. under continuous stirring at 100 rpm for a maximum of 4 h. UV absorption was measured with the in-line probes at regular intervals. Upon completion of the experiment the pH of the solution was determined. Concentrations of API in solution were calculated with use of the calibration curve and plotted against time. Dissolution rates were calculated over the linear parts of the curves. All dissolution rate experiments were done in triplicate except for TFA1 which were done in duplicate due to the lack of material.

[4] = Kinetic and thermodynamic solubility in water at 37° C. (1 h and 18 h, UPLC)
[5] = Aqueous solubility of salts, Example 1 (aliquot addition; HPLC after 24 h at RT; pH of solutions/mother liquors); settings: Example 1; RT; aliquot addition (ranges) or HPLC after 24 h, not in Table 3
Experimental: The aqueous solubility of the salts was estimated qualitatively by the solvent aliquot addition method. Aliquots of water up to 500-600 μL were added to approximately 5 mg of salt. The solubility of the free base was also estimated.
The suspensions were let equilibrating at room temperature for 24 h. Afterwards, solids were separated from the liquid phases. The liquid phases were filtered and analyzed by HPLC to determine the solubility. The pH of solutions/mother liquors was also measured.
Suspensions of the two salts were prepared in water with a concentration of 9-10 mg/mL. The mixtures were let equilibrating at RT for 24 h. Afterwards, solids were separated from the liquid phases. The liquid phases were filtered and analyzed by HPLC to determine the solubility. The pH of mother liquors was also measured.

[6] = Polymorphic landscape by thermocycling of amorphous salt in 15 solvents; format: physicochemical; settings: for polymorphs found: Example 3, thermocycling from amorphous salt, 15 solvents; for HT-XRPD Vac.: vacuum-dried solid; for HT-XRPD Vac. (AAC): vacuum-dried solid after AAC 48 h; for HT-XRPD Evap.: evaporated liquid; for HT-XRPD Evap. (AAC): evaporated liquid after AAC 48 h
[7] = Physical stability under Accelerated Aging Conditions (AAC, 40° C./75% RH, 2 days), HT-XRPD
[8] = Polymorphism: solid forms found in salt screen by HT-XRPD; format: physicochemical; settings: Example 1 salt screen in MeOH, DME, THF
Experimental: The precipitated solids were analyzed by high throughput X-ray powder diffractometry (HT XRPD). Liquid phases (both solutions and mother liquors) were evaporated at ambient conditions and the residual solids were analyzed by HT XRPD.
The salt screen experiments were carried out in methanol (MeOH), 1,2-dimethoxyethane (DME) and tetrahydrofuran (THF).

[9] = open container 25° C. and 60% RH
[10] = open container 40° C. and 75% RH
[11] = water, 37° C., 30 mg/ml suspension
[12] = thermocycling in Acetone/water (95/5% v/v)
[13] = thermocycling in EtOH/water (95/5% v/v)
[14] = thermocycling in IPA/water (95/5% v/v)

UPLC t0 ([1]; chemical purity at start of stability study): 99.4% | UPLC 1 week [1, 9]: 99.4% | UPLC 3 weeks [1, 9]: 99.4% | UPLC 3 days [1, 9]: 99.4% | UPLC 1 week [1, 10]: 99.2% | UPLC 3 weeks [1, 10]: 99.4% | UPLC 3 days [1, 10]: 99.4% | physical and chemical stability ([1]; incubation for 3 weeks at 25° C./60% RH and 40° C./75% RH): physically and chemically stable | TGMS 1 week [1, 9]: <0.1% water | XRPD 1 week [1, 9]: LAC1 | TGMS 3 weeks [1, 9]: <0.1% water | XRPD 3 weeks [1, 9]: LAC1 | TGMS 3 days [1, 9]: 1.2% water | XRPD 3 days [1, 9]: LAC1 | TGMS 1 week [1, 10]: 0.2% water | XRPD 1 week [1, 10]: LAC1 | TGMS 3 weeks [1, 10]: <0.1% water | XRPD 3 weeks [1, 10]: LAC1 | TGMS 3 days [1, 10]: 1.5% water | XRPD 3 days [1, 10]: LAC1 | TGMS t0 ([1]; start of stability study): 0.4% water | XRPD t0 ([1]; start of stability study): LAC1 | classification of hygroscopic behaviour [2]: slightly hygroscopic | dissolution rate compared with TFA2 and TFA1 [3]: significantly faster | IDR (mg/cm^2/min) Average ([3]; FaSSIF, 37° C., 100 rpm): 0.39 ± 0.11 mg/cm^2/min | IDR (mg/cm^2/min) Average ([3]; Water, 37° C., 100 rpm): 1.87 ± 0.06 mg/cm^2/min | time until the whole tablet has been dissolved ([3]; water, 37° C.): about 50 min | Intrinsic Dissolution Rate (IDR) ([3]; water, 37° C., 100 rpm, linear part (LAC1 1 to 36 min; TFA 10-100 min)): 1.87±0.06 mg/cm^2/min | solubility compared with the TFA salts ([4]; overall conclusion of Example 3): significantly higher solubility | XRPD 1 h Amb. ([4]; residual solid after 1 h in water at 37° C., ambient-dried): LAC1 | XRPD 1 h Vac. ([4]; residual solid after 1 h in water at 37° C., vacuum-dried): LAC1 | XRPD 18 h Amb. ([4]; residual solid after 18 h in water at 37° C., ambient-dried): Am | XRPD 18 h Vac. ([4]; residual solid after 18 h in water at 37° C., vacuum-dried): LAC1 | pH after 10 min [4, 11]: 5.9 | pH after 1 h [4, 11]: 5.8 | pH after 18 h [4, 11]: 5.8 | Solubility (mg/mL) 1 h ([4]; water, 37° C., 1 h (kinetic), UPLC): 24.3 mg/mL | Solubility (mg/mL) 18 h ([4]; water, 37° C., 18 h (thermodynamic), UPLC): 23.6 mg/mL | Water solubility [5]: 26 to 51 mg/mL | polymorphs found ([6]; listed as benzamil lactate salt): not to be polymorphic | polymorphs found ([6]; listed as lactate salt): Only one polymorph | HT-XRPD Vac. ([6]; thermocycling in 1,4-Dioxane): LAC1 | HT-XRPD Vac. (AAC) ([6]; thermocycling in 1,4-Dioxane): LAC1 | HT-XRPD Vac. ([6]; thermocycling in ACN): LAC1 | HT-XRPD Vac. (AAC) ([6]; thermocycling in ACN): LAC1 | HT-XRPD Vac. ([6]; thermocycling in Acetone): LAC1 | HT-XRPD Vac. (AAC) ([6]; thermocycling in Acetone): LAC1 | HT-XRPD Vac. [6, 12]: LAC1 | HT-XRPD Vac. (AAC) [6, 12]: LAC1 | HT-XRPD Vac. ([6]; thermocycling in DME): LAC1 | HT-XRPD Vac. (AAC) ([6]; thermocycling in DME): LAC1 | HT-XRPD Vac. ([6]; thermocycling in EtOAc): LAC1 | HT-XRPD Vac. (AAC) ([6]; thermocycling in EtOAc): LAC1 | HT-XRPD Vac. ([6]; thermocycling in EtOH): LAC1 | HT-XRPD Vac. (AAC) ([6]; thermocycling in EtOH): LAC1 | HT-XRPD Evap. [6, 13]: LAC1 | HT-XRPD Evap. (AAC) [6, 13]: LAC1 | HT-XRPD Vac. [6, 13]: LAC1 | HT-XRPD Vac. (AAC) [6, 13]: LAC1 | HT-XRPD Vac. ([6]; thermocycling in IPA): LAC1 | HT-XRPD Vac. (AAC) ([6]; thermocycling in IPA): LAC1 | HT-XRPD Vac. [6, 14]: LAC1 | HT-XRPD Vac. (AAC) [6, 14]: LAC1 | HT-XRPD Vac. ([6]; thermocycling in MEK): LAC1 | HT-XRPD Vac. (AAC) ([6]; thermocycling in MEK): LAC1 | HT-XRPD Evap. ([6]; thermocycling in MeOH): Oil | HT-XRPD Evap. (AAC) ([6]; thermocycling in MeOH): Oil | HT-XRPD Vac. ([6]; thermocycling in TBME): LAC1 | HT-XRPD Vac. (AAC) ([6]; thermocycling in TBME): LAC1 | HT-XRPD Vac. ([6]; thermocycling in THF): LAC1 | HT-XRPD Vac. (AAC) ([6]; thermocycling in THF): LAC1 | HT-XRPD Evap. ([6]; thermocycling in Water): LAC1 | HT-XRPD Evap. (AAC) ([6]; thermocycling in Water): LAC1 | HT-XRPD Vac. ([6]; thermocycling in Water): ly | HT-XRPD Vac. (AAC) ([6]; thermocycling in Water): ly | Physically stable? ([7]; AAC, 2 days at 40° C. and 75% RH, solids from thermocycling): Yes | Physically stable after AAC ([7]; Example 1, 40° C./75% RH for 2 days): physically stable and Yes | physical stability upon exposure to AAC ([7]; Example 3 thermocycling solids, 2 days at 40° C. and 75% RH): physically stable | Polymorphism [8]: No | Polymorphism ([8]; listed as lactate salt): Only one polymorph
Structure (SMILES): CC(O)C(=O)O.NC(=NCc1ccccc1)NC(=O)c1nc(Cl)c(N)nc1N [LAC1]
IDR (mg/cm^2/min) Individual ([3]; FaSSIF, 37° C., 100 rpm): 0.285 mg/cm^2/min and 0.510 mg/cm^2/min and 0.389 mg/cm^2/min | IDR (mg/cm^2/min) Individual ([3]; Water, 37° C., 100 rpm): 1.870 mg/cm^2/min and 1.811 mg/cm^2/min and 1.933 mg/cm^2/min
